{
  "source": "patent US20220306626A1",
  "about": "“CRYSTALLINE FORM OF A DIHYDROCHLORIDE SALT OF A JAK INHIBITOR COMPOUND” (Theravance Biopharma R&D IP, LLC, priority 2021, published 2022)",
  "key": {"JAK1": {"molecular_target": "JAK1 (Homo sapiens, UniProt P23458)", "sequence (P23458 whole entry)": "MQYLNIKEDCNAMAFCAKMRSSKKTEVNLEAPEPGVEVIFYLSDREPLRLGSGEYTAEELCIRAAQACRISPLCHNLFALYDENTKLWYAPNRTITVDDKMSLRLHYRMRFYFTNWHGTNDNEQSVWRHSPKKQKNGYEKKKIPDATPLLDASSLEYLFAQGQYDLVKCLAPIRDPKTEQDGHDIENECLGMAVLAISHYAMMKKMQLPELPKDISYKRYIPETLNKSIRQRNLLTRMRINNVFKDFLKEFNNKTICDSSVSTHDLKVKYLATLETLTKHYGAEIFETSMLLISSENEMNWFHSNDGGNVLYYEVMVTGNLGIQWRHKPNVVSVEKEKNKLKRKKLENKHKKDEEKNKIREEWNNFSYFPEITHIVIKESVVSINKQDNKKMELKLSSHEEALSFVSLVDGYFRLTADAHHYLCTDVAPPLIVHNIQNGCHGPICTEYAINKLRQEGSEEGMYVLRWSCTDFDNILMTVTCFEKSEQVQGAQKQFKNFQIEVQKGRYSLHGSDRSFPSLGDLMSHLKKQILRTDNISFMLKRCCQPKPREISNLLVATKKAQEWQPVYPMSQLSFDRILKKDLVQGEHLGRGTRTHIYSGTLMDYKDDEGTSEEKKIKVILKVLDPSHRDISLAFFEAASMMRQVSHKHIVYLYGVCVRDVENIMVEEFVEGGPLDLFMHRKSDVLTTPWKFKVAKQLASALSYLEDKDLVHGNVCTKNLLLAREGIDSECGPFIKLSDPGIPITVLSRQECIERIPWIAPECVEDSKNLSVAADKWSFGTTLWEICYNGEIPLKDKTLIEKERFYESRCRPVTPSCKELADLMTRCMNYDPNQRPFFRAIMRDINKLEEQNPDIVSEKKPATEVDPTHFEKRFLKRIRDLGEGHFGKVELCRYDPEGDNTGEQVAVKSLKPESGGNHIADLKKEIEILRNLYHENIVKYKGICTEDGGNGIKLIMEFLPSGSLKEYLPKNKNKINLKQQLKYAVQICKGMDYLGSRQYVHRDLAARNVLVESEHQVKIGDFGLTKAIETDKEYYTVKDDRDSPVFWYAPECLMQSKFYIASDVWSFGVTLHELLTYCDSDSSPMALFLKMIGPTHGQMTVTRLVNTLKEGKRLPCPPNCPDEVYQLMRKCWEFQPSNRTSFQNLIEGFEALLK", "settings": "cited from earlier work"}, "JAK2": {"molecular_target": "JAK2 (Homo sapiens, UniProt O60674)", "sequence (O60674 whole entry)": "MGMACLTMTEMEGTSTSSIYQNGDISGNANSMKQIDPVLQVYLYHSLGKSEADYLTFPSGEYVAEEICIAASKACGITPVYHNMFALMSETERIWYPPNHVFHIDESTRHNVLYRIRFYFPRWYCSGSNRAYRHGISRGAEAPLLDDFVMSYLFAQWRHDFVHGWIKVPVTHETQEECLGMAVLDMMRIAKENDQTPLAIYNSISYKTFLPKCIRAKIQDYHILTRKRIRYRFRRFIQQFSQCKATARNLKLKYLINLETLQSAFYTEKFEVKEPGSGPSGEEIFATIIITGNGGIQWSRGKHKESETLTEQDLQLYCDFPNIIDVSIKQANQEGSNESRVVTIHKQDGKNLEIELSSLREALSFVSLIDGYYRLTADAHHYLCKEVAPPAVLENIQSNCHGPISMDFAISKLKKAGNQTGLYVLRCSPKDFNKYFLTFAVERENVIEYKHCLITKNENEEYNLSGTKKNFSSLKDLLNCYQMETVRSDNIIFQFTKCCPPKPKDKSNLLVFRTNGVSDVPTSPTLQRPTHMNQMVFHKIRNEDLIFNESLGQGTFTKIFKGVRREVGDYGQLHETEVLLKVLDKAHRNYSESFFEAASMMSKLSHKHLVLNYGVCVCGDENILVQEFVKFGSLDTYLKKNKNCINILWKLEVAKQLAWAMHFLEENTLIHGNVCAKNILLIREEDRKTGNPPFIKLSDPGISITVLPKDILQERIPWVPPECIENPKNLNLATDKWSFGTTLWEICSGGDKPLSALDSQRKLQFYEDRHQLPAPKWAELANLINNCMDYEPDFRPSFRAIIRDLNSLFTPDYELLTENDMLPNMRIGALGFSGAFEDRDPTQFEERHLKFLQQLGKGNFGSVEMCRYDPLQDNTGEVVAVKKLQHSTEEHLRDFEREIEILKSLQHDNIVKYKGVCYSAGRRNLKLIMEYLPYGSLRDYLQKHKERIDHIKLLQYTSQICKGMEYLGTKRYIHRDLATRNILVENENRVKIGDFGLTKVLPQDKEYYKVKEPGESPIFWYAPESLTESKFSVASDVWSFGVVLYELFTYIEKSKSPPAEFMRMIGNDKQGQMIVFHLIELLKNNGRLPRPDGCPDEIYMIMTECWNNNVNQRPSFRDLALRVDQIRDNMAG", "settings": "cited from earlier work"}, "JAK3": {"molecular_target": "T1, JAK3 (Homo sapiens, UniProt P52333)", "T1 sequence (P52333 1-1124)": "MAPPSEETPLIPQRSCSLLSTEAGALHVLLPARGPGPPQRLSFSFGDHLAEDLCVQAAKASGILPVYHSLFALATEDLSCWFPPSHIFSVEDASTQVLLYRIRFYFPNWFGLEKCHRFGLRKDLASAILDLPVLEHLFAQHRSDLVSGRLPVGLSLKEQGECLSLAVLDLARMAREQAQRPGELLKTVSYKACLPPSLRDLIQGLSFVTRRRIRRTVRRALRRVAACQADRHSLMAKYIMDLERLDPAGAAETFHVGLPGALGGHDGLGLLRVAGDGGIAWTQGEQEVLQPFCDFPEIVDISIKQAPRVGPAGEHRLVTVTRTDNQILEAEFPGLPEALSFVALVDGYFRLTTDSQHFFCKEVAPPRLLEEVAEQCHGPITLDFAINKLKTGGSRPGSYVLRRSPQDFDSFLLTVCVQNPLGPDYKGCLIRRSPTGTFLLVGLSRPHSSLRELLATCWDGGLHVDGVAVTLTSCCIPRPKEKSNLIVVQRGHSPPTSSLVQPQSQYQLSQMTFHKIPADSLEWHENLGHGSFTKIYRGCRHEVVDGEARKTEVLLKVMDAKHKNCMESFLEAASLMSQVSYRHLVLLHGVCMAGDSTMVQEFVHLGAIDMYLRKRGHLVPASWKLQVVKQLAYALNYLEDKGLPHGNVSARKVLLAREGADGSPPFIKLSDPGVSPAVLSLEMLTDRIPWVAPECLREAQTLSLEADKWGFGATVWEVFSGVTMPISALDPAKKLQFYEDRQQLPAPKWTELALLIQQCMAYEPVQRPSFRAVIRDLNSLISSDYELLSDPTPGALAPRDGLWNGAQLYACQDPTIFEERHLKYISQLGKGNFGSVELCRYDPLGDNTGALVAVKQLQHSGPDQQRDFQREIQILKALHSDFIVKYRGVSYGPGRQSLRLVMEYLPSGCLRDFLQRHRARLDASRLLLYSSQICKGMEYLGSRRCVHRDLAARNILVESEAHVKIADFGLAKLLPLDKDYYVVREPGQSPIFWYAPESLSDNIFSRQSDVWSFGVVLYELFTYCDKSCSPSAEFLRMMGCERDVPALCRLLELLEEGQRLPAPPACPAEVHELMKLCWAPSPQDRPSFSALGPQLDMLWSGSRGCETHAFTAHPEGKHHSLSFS", "settings": "cited from earlier work"}, "TYK2": {"molecular_target": "TYK2 (Homo sapiens, UniProt P29597)", "sequence (P29597 whole entry)": "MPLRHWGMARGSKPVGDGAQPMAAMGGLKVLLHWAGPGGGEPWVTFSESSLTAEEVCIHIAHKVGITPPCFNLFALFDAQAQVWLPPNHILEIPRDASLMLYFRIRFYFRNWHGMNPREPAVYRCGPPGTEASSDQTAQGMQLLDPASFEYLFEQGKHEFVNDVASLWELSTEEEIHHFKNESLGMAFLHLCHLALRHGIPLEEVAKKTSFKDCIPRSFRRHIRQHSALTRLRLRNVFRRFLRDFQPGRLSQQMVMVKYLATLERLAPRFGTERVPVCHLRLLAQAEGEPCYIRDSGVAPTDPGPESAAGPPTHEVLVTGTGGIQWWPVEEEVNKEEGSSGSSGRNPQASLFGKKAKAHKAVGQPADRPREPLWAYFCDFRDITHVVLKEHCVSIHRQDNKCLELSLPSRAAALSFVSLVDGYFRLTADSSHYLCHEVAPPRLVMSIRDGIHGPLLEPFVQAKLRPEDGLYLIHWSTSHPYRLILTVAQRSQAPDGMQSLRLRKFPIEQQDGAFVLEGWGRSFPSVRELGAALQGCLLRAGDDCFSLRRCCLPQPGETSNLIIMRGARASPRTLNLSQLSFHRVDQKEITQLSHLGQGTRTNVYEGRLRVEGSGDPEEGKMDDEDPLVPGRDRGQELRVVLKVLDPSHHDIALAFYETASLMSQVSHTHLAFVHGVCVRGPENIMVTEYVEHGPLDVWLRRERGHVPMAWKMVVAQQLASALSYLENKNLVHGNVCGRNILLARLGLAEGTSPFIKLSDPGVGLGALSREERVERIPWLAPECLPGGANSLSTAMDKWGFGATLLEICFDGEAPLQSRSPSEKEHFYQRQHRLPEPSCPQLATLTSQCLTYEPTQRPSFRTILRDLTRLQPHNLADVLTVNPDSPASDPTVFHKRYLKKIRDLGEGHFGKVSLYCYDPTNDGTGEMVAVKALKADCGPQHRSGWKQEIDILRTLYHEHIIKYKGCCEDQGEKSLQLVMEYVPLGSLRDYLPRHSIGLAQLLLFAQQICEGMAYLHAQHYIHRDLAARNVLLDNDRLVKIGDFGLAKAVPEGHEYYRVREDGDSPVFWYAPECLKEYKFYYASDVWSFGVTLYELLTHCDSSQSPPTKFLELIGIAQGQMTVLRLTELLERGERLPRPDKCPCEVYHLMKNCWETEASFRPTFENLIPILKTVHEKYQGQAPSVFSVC", "settings": "cited from earlier work"}, "[1]": {"system": "pro-inflammatory and pro-fibrotic cytokines", "settings": "cited from earlier work"}, "[2]": {"settings": "in vivo; cited from earlier work"}, "[3]": {"assay": "Dynamic moisture sorption (DMS) assessment", "type": "physicochemical", "protocol": "Dynamic moisture sorption (DMS) measurement was performed using a VTI atmospheric microbalance, SGA-100 system (VTI Corp., Hialeah, Fla. 33016). A weighed sample was used and the humidity was at the lowest possible value (close to 0% RH) at the start of the analysis. The DMS analysis consisted of an initial drying step (˜0% RH) for 16 hours, followed by two cycles of sorption and desorption with a scan rate of 5% RH/step over the humidity range of 5% RH to 90% RH. The DMS run was performed isothermally at 25° C."}, "[4]": {"assay": "Stability study, storage at 40° C. and 75% relative humidity, analysed by HPLC", "type": "physicochemical", "protocol": "Samples of the crystalline form were stored in glass vials with screw caps at 40° C. and 75% relative humidity (RH). At specific intervals, the contents of a representative sample were removed and analyzed by HPLC for assay and chemical purity as shown in Table 3."}, "[5]": {"assay": "Solubility of the crystalline form in water and Simulated Lung Fluid", "type": "physicochemical", "protocol": "The solubility of the crystalline form was assessed in water and Simulated Lung Fluid (SLF). The crystalline form was dispersed in liquid media in multiple vials to form slurries, with each vial containing about 7.5 mg of the crystalline form and 0.5 mL of the liquid media. The slurries were agitated in a thermo-shaker at 25° C. and samples were collected from different vials at approximately 5, 15, 30, 60 minutes, and 24 hours. At each of the timepoints, the slurries were centrifuged for 10 minutes. The supernatant was collected and centrifuged for another 10 minutes. Solubility at each timepoint is determined by analyzing the compound concentration in the supernatant using HPLC. SLF composition: 0.4% NaCl, 0.02% DPPC in 50 mM phosphate buffer pH 6.9"}, "[6]": {"assay": "Thermogravimetric analysis (TGA)", "type": "physicochemical", "settings": "heating rate of 10° C., ambient to 360° C., nitrogen", "protocol": "Thermogravimetric analysis (TGA) measurements were performed using a TA Instruments Model Q-50 module equipped with high resolution capability. Data were collected using TA Instruments Thermal Analyst controller and analyzed using TA Instruments Universal Analysis software. A weighed sample was placed onto a platinum pan and scanned with a heating rate of 10° C. from ambient temperature to 360° C. The balance and furnace chambers were purged with nitrogen flow during use. The crystalline form decomposes at an onset temperature of about 285° C."}, "[7]": {"settings": "T = 3 Months, 40° C. and 75% RH"}, "[8]": {"settings": "T = 6 Months, 40° C. and 75% RH"}},
  "note": "Like-named read-outs stand apart in the source and are kept apart here.",
  "data": [
    {"molecule": "CCc1cc(O)c(F)cc1-c1ccc2c(-c3nc4c([nH]3)CCN(C3CCN(C)CC3)C4)n[nH]c2c1", "note": "[compound 1, 5-ethyl-2-fluoro-4-(3-(5-(1-methylpiperidin-4-yl)-4,5,6,7-tetrahydro-1H-imidazo[4,5-c]pyridin-2-yl)-1H-indazol-6-yl)phenol]", "values": [
      {"measurement": "inhibition of JAK1 (in words)", "setting": "JAK1", "value": "potent inhibitor"},
      {"measurement": "inhibition of JAK2 (in words)", "setting": "JAK2", "value": "potent inhibitor"},
      {"measurement": "inhibition of JAK3 (in words)", "setting": "JAK3", "value": "potent inhibitor"},
      {"measurement": "inhibition of TYK2 (in words)", "setting": "TYK2", "value": "potent inhibitor"},
      {"measurement": "inhibition of pro-inflammatory and pro-fibrotic cytokines (in words)", "setting": "[1]", "value": "potent inhibition"},
      {"measurement": "lung retention (in words)", "setting": "[2]", "value": "significant lung retention"}
    ]},
    {"molecule": "CCc1cc(O)c(F)cc1-c1ccc2c(-c3nc4c([nH]3)CCN(C3CCN(C)CC3)C4)n[nH]c2c1", "note": "[crystalline form, 5-ethyl-2-fluoro-4-(3-(5-(1-methylpiperidin-4-yl)-4,5,6,7-tetrahydro-1H-imidazo[4,5-c]pyridin-2-yl)-1H-indazol-6-yl)phenol, 2HCl Crystalline Form]", "values": [
      {"measurement": "change in form after two cycles of moisture sorption and desorption", "setting": "[3]; 5% RH to 90% RH, 25° C.", "value": "no change in form"},
      {"measurement": "total moisture uptake", "setting": "[3]; relative humidity between about 5% and about 90%, room temperature (25° C.)", "value": "about 0.8%"},
      {"measurement": "Assay % w/w", "setting": "[4]; T = 0", "value": 85.0, "unit": "% w/w"},
      {"measurement": "HPLC purity % a/a", "setting": "[4]; T = 0", "value": 98.7, "unit": "% a/a"},
      {"measurement": "Assay % w/w", "setting": "[4]; T = 1 Week, 40° C. and 75% RH", "value": 86.8, "unit": "% w/w"},
      {"measurement": "HPLC purity % a/a", "setting": "[4]; T = 1 Week, 40° C. and 75% RH", "value": 98.7, "unit": "% a/a"},
      {"measurement": "Assay % w/w", "setting": "[4]; T = 2 Weeks, 40° C. and 75% RH", "value": 85.1, "unit": "% w/w"},
      {"measurement": "HPLC purity % a/a", "setting": "[4]; T = 2 Weeks, 40° C. and 75% RH", "value": 98.7, "unit": "% a/a"},
      {"measurement": "Assay % w/w", "setting": "[4]; [7]", "value": 84.5, "unit": "% w/w"},
      {"measurement": "HPLC purity % a/a", "setting": "[4]; [7]", "value": 98.7, "unit": "% a/a"},
      {"measurement": "Assay % w/w", "setting": "[4]; T = 4 Weeks, 40° C. and 75% RH", "value": 86.9, "unit": "% w/w"},
      {"measurement": "HPLC purity % a/a", "setting": "[4]; T = 4 Weeks, 40° C. and 75% RH", "value": 98.7, "unit": "% a/a"},
      {"measurement": "Assay % w/w", "setting": "[4]; [8]", "value": 85.1, "unit": "% w/w"},
      {"measurement": "HPLC purity % a/a", "setting": "[4]; [8]", "value": 98.5, "unit": "% a/a"},
      {"measurement": "change in purity or assay", "setting": "[4]; after 6 months at 40° C. and 75% RH", "value": "no significant change"},
      {"measurement": "solubility at 30 min", "setting": "[5]; Simulated Lung Fluid (SLF), fassgf or other biorelevant, thermodynamic from solid, Simulated Lung Fluid pH 6.9, 25° C., 30 minutes", "value": 210, "unit": "µg/mL"},
      {"measurement": "solubility at 24 h", "setting": "[5]; Simulated Lung Fluid (SLF), pH 6.9, fassgf or other biorelevant, thermodynamic from solid, Simulated Lung Fluid, 25° C., read-out: solubility in SLF", "value": 70, "unit": "µg/mL"},
      {"measurement": "solubility in simulated lung fluid (in words)", "setting": "[5]; simulated lung fluid", "value": "good solubility"},
      {"measurement": "solubility at 60 min", "setting": "[5]; thermodynamic from solid, water, 25° C., 60 minutes", "value": 8900, "unit": "µg/mL"},
      {"measurement": "solubility at 24 h", "setting": "[5]; thermodynamic from solid, water, 25° C., read-out: solubility in water", "value": 3200, "unit": "µg/mL"},
      {"measurement": "solubility in water (in words)", "setting": "[5]; water", "value": "good solubility"},
      {"measurement": "decomposition onset temperature (TGA)", "setting": "[6]", "value": "about 285 °C"}
    ]}
  ]
}
